# Like-named read-outs stand apart in the source and are kept apart here.
# Experiments:
# PLK1 kinase = target: T1, PLK1 kinase (Homo sapiens, UniProt P53350); assay: Inhibitory activity on PLK1 kinase; type: biochemical; conditions: for IC50: PLK1 kinase, highest concentration 1 μM, 10 points, read-out: IC50; for Imax: maximum effect caused by the compound at the test concentration
# T1 construct: purchased Carnabio (Carna Biosciences) 05-157
# Description: Detection solution PerkinElmer #TRF0218-M
# Detection instrument PerkinElemer EnVision
# a. Using the Echo machine, the compounds to be tested were diluted by 1:3 on a 384-well plate, and the highest concentration was 1 μM, with a total of 10 concentration points, and each concentration was tested in duplicate wells.
# b. 5 μL/well of PLK1 kinase and peptide substrate mixture were added to the assay plate (containing controls).
# d. The reaction was initiated by adding 5 μL/well of ATP solution;
# e. The assay plate was centrifuged at 1000 rpm for about 15 seconds, a film was used to seal the assay plate which was incubated at 23° C. for a period of time;
# f. A detection solution was added to all wells of the assay plate;
# g. The assay plate was centrifuged at 1000 rpm for approximately 15 seconds, a film was used to seal the assay plate which was incubated at 23° C. for 60 min.
# h. The assay plate was read on EnVision. The test results were analyzed using XLFIT5 software.
# [1] = Permeability and efflux transporter substrate evaluation in Caco-2 cells; type: in vitro ADME; parameters: Papp A→B at 120 min / Papp B→A at 120 min / efflux ratio at 120 min / Papp at 120 min: dose or concentration left out as unconfirmed; conditions: human; for efflux ratio at 120 min / Papp at 120 min: Caco-2, pH 7.4; for Papp at 120 min: read-out: Classification Permeability; for Papp A→B at 120 min / Papp B→A at 120 min: pH 7.4, pH 7.40; for Papp A→B at 120 min: Caco-2, apical to basolateral; for Papp B→A at 120 min: Caco-2, basolateral to apical
# Method in brief: (§1)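 Bidirectional (A-B, B-A) transport across 21-28-day Caco-2 monolayers in HBSS/10 mM HEPES pH 7.40, test substance at […], 7200 s incubation. LC-MS/MS quantitation; Papp, efflux ratio and recovery calculated, monolayer integrity checked by Lucifer Yellow rejection.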
# Caco-2 cells = assay: as above; type: in vitro ADME; parameters: Papp A→B at 120 min / Papp B→A at 120 min / efflux ratio at 120 min / Papp at 120 min: dose or concentration left out as unconfirmed; conditions: Caco-2
# Method in brief: as §1
# HCT116 cells = assay: Inhibitory activity on HCT116 cell proliferation (ATPlite); type: cell-based; conditions: Homo sapiens, HCT-116, HCT116 cells, 72 h
# Description: Cell culture medium: RPMI1640+10% FBS (GBICO)
# Cell culture plate: 96-well plate (Shanghai Jingan Biotechnology Co., Ltd.)
# Detection kit: ATPlite 1step Luminescence (PerkinElmer)
# Detection instrument: BioTek multifunctional microplate reader
# 2. Test method: HCT116 cells in the logarithmic growth phase were seeded into a white-wall clear-bottom 96-well plate at a density of 720 cells per well, and cultured overnight in a 37° C., 5% CO2 incubator. […] After adding the drug, culturing was continued for 72 h in a 37° C., 5% CO2 incubator.
# GraphPad Prism 7.0 was used to process the data, the cell inhibition rate curve was obtained and IC50 was calculated.
# [2] = read-out: half inhibitory concentration
# T1 sequence (P53350 whole entry): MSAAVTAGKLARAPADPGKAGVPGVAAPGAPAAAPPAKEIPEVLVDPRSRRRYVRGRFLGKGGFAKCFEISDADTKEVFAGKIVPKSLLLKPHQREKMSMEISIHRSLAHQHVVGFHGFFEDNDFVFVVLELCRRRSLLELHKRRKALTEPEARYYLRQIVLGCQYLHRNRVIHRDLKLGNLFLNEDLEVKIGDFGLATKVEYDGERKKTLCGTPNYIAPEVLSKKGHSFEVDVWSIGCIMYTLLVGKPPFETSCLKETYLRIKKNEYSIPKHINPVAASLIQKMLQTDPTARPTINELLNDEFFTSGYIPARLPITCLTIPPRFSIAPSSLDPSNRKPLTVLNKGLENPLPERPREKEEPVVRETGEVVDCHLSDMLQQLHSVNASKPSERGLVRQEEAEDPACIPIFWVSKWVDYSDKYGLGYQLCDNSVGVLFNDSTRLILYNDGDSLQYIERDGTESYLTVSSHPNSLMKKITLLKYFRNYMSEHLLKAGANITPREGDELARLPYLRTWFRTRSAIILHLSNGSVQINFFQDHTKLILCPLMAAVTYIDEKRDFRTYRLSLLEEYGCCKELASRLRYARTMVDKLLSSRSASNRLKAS
Compound,IC50 (PLK1 kinase) [nM],Imax (PLK1 kinase) [%],efflux ratio at 120 min [1],Papp at 120 min [1] [×10⁻⁶ cm/s],Papp A→B at 120 min [1] [×10⁻⁶ cm/s],Papp B→A at 120 min [1] [×10⁻⁶ cm/s],Classification Efflux transporter substrate (Caco-2 cells),IC50 (HCT116 cells; read-out: IC50) [nM],IC50 (HCT116 cells; [2]) [nM]
CN1CCN(c2ccc(OC(F)(F)F)c(Nc3ncc4c(n3)-c3c(c(C(=O)NN)nn3CCO)CC4)c2)CC1 [Compound 13],2.49,99.41,> 28.6,< 0.5,< 0.48,13.7,Likely (ERa ≥ 2.00),831,–
"CN1CCN(c2ccc(OC(F)(F)F)c(Nc3ncc4c(n3)-c3c(c(C(N)=O)nn3CCO)CC4)c2)CC1 [Onvansertib, reference compound]",–,100.02,–,< 0.5,0.299,43.6,Likely (ERa ≥ 2.00),42,–
Cn1nc(C(N)=O)c2c1-c1nc(Nc3cc(N4CCN(CCO)CC4)ccc3OC(F)(F)F)ncc1CC2 [Compound 20],1.28,99.29,10.4,0.5 to 2.5,1.3,13.4,Likely (ERa ≥ 2.00),143,–
CN1CCN(c2ccc(OC(F)(F)F)c(Nc3ncc4c(n3)-c3c(c(C(N)=O)nn3CCC#N)CC4)c2)CC1 [Compound 4],1.64,99.51,22.1,0.5 to 2.5,1.16,25.5,Likely (ERa ≥ 2.00),332,–
Cn1nc(C(N)=O)c2ccc3cnc(Nc4cc(N5CCN(CCO)CC5)ccc4OC(F)(F)F)nc3c21 [Compound 16],4.77,98.76,7.27,0.5 to 2.5,0.917,6.66,Likely (ERa ≥ 2.00),502,–

# Now those with a lower IC50 (HCT116 cells; read-out: IC50), led by results:
IC50 (PLK1 kinase) [nM],Imax (PLK1 kinase) [%],efflux ratio at 120 min [1],Papp at 120 min [1] [×10⁻⁶ cm/s],Papp A→B at 120 min [1] [×10⁻⁶ cm/s],Papp B→A at 120 min [1] [×10⁻⁶ cm/s],Classification Efflux transporter substrate (Caco-2 cells),IC50 (HCT116 cells; read-out: IC50) [nM],IC50 (HCT116 cells; [2]) [nM],Compound
1.21,99.48,279,< 0.5,0.106,29.5,Likely (ERa ≥ 2.00),32,32,CN1CCN(c2ccc(OCC(F)(F)F)c(Nc3ncc4c(n3)-c3c(c(C(N)=O)nn3CCO)CC4)c2)CC1 [Compound 24]
0.99,99.81,> 54.4,< 0.5,< 0.48,26.1,Likely (ERa ≥ 2.00),27,27,CN1CCN(c2ccc(OC(F)(F)F)c(Nc3ncc4c(n3)-c3c(c(C(N)=O)cn3CCO)CC4)c2)CC1 [Compound 2]

# Reference: patent US20260176249A1, “PROTEIN KINASE INHIBITOR, PREPARATION METHOD THEREFOR, AND APPLICATION THEREOF” (SHANDONG LUYE PHARMACEUTICAL CO., LTD., priority 2021, published 2026)
